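The compound was tested at five concentrations on cells cultured in 96-well plates, with a 48-hour exposure period. GI50: concentration for 50% inhibition of growth.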 Calls of active or inactive are those of the source. Cut-off read from the data, not from the text of the source: active = GI50 up to about 1.1 µM and inactive = higher.
How the values were obtained:
Experiment in all cases: inhibition of tumour cell growth, NCI panel, 48 h
786-0 = system: 786-0
CCRF-CEM = system: CCRF-CEM
DU-145 = system: DU-145
HCT-116 = system: HCT-116
HCT-15 = system: HCT-15
HOP-62 = system: HOP-62
K562 = system: K562
KM12 = system: KM12
M14 = system: M14
NCI-H226 = system: NCI-H226
NCI/ADR-RES = system: NCI/ADR-RES
OVCAR-3 = system: OVCAR-3
SF-295 = system: SF-295
SN12C = system: SN12C
LOX IMVI = system: LOX IMVI
SK-OV-3 = system: SK-OV-3
SR = system: SR
HCC 2998 = system: HCC 2998
NCI-H522 = system: NCI-H522
DMS-114 = system: DMS-114

SMILES	GI50 (786-0)	GI50 (CCRF-CEM)	GI50 (DU-145)	GI50 (HCT-116)	GI50 (HCT-15)	GI50 (HOP-62)	GI50 (K562)	GI50 (KM12)	GI50 (M14)	GI50 (NCI-H226)	GI50 (NCI/ADR-RES)	GI50 (OVCAR-3)	GI50 (SF-295)	GI50 (SN12C)	GI50 (LOX IMVI)	GI50 (SK-OV-3)	GI50 (SR)	GI50 (HCC 2998)	GI50 (NCI-H522)	GI50 (DMS-114)
CCOC(=O)c1c(N=C(S)Nc2ccccc2)sc2c1CCN(C)C2	> 100 µM (inactive)	> 100 µM (inactive)	> 100 µM (inactive)	> 100 µM (inactive)	> 100 µM	> 100 µM (inactive)	> 100 µM (inactive)	> 100 µM (inactive)	> 100 µM (inactive)	> 100 µM (inactive)	> 100 µM (inactive)	> 100 µM (inactive)	> 100 µM (inactive)	> 100 µM (inactive)						
COc1ccc(-c2c3c(nc4nc(SCCc5ccccc5)nc(N)c24)CCCC3)cc1OC		> 100 µM (inactive)	> 100 µM (inactive)	> 100 µM (inactive)	> 100 µM	90.8 µM (inactive)	> 100 µM (inactive)	> 100 µM (inactive)	> 100 µM (inactive)		> 100 µM (inactive)	> 100 µM (inactive)	22.7 µM (inactive)	> 100 µM (inactive)	> 100 µM (inactive)	> 100 µM (inactive)	> 100 µM (inactive)			
O=C(N/N=C/c1ccccc1)c1c(F)c(F)c(F)c(F)c1F		> 100 µM (inactive)	> 100 µM (inactive)	56 µM (inactive)	50.1 µM	> 100 µM (inactive)	> 100 µM (inactive)	86.1 µM (inactive)	56.8 µM (inactive)	> 100 µM (inactive)	> 100 µM (inactive)	> 100 µM (inactive)	> 100 µM (inactive)	> 100 µM (inactive)	> 100 µM (inactive)	> 100 µM (inactive)	> 100 µM (inactive)	> 100 µM (inactive)	23.3 µM (inactive)	
N#CCc1c(F)c(F)c(F)c(F)c1F	> 100 µM (inactive)	> 100 µM (inactive)	> 100 µM (inactive)	> 100 µM (inactive)	> 100 µM	> 100 µM (inactive)	> 100 µM (inactive)	> 100 µM (inactive)	> 100 µM (inactive)	> 100 µM (inactive)	> 100 µM (inactive)		> 100 µM (inactive)	> 100 µM (inactive)	> 100 µM (inactive)	> 100 µM (inactive)	> 100 µM (inactive)	> 100 µM (inactive)	> 100 µM (inactive)	
OCCCC(O)(c1ccccc1)c1ccccc1	> 100 µM (inactive)	> 100 µM (inactive)			> 100 µM	> 100 µM (inactive)	> 100 µM (inactive)	> 100 µM (inactive)	> 100 µM (inactive)	> 100 µM (inactive)	> 100 µM (inactive)	> 100 µM (inactive)	> 100 µM (inactive)	> 100 µM (inactive)	> 100 µM (inactive)	> 100 µM (inactive)	> 100 µM (inactive)	> 100 µM (inactive)	> 100 µM (inactive)	
CC[C@]12C=CCN3CC[C@@]4(c5cc(Br)c(OC)c([N+](=O)[O-])c5N(C)[C@H]4[C@@](O)(C(=O)OC)[C@@H]1OC(C)=O)[C@@H]32	94.6 µM (inactive)	24.7 µM (inactive)	98.2 µM (inactive)	45.8 µM (inactive)	65.3 µM	87.5 µM (inactive)	0.443 µM (active)	47.6 µM (inactive)	55.7 µM (inactive)	21.8 µM (inactive)	48.1 µM (inactive)	34.4 µM (inactive)	37 µM (inactive)	88.7 µM (inactive)	34.6 µM (inactive)	> 100 µM (inactive)	25.7 µM (inactive)			
CCOC(=O)NC(OCc1ccccc1)(C(=O)OC)C(F)(F)F (stereo not drawn)		> 100 µM (inactive)	> 100 µM (inactive)	> 100 µM (inactive)	> 100 µM		> 100 µM (inactive)	> 100 µM (inactive)	> 100 µM (inactive)		> 100 µM (inactive)	> 100 µM (inactive)	> 100 µM (inactive)	> 100 µM (inactive)	> 100 µM (inactive)	> 100 µM (inactive)	> 100 µM (inactive)	> 100 µM (inactive)	> 100 µM (inactive)	
CC1CC/C(=C\c2ccc(Cl)cc2)C(=O)/C1=C\c1ccc(Cl)cc1 (stereo not drawn)	34.1 µM (inactive)	41.9 µM (inactive)	49.2 µM (inactive)	32.6 µM (inactive)	22.4 µM	25.6 µM (inactive)	41 µM (inactive)	18.7 µM (inactive)	24 µM (inactive)					30.8 µM (inactive)	31.8 µM (inactive)	> 100 µM (inactive)				
COc1ccc(/N=C(\C)c2ccncc2)cc1	> 100 µM (inactive)	> 100 µM (inactive)	83 µM (inactive)	> 100 µM (inactive)	32.1 µM	> 100 µM (inactive)	> 100 µM (inactive)	> 100 µM (inactive)	> 100 µM (inactive)	93.3 µM (inactive)	> 100 µM (inactive)	> 100 µM (inactive)	> 100 µM (inactive)	> 100 µM (inactive)	> 100 µM (inactive)	> 100 µM (inactive)		> 100 µM (inactive)	> 100 µM (inactive)	
CCCCCCCSc1nc2c(C(=O)OCC)ncn2c2ccccc12		> 100 µM (inactive)		> 100 µM (inactive)	> 100 µM	43.3 µM (inactive)	> 100 µM (inactive)	> 100 µM (inactive)	> 100 µM (inactive)	> 100 µM (inactive)		> 100 µM (inactive)	91.8 µM (inactive)	> 100 µM (inactive)	> 100 µM (inactive)	> 100 µM (inactive)	> 100 µM (inactive)	> 100 µM (inactive)		> 100 µM (inactive)
O=C(Nc1c(C(=O)NC2CCCCC2)[nH]c(=O)[nH]c1=O)c1ccc(Cl)cc1		> 100 µM (inactive)		> 100 µM (inactive)	> 100 µM	> 100 µM (inactive)	> 100 µM (inactive)	49.3 µM (inactive)	> 100 µM (inactive)	> 100 µM (inactive)		> 100 µM (inactive)	> 100 µM (inactive)	> 100 µM (inactive)	> 100 µM (inactive)	> 100 µM (inactive)	> 100 µM (inactive)		44.3 µM (inactive)	> 100 µM (inactive)
CCOC(=O)c1cc(C2CCN(Cc3ccccc3)C2=S)c(C(=O)C=[N+]=[N-])[nH]1 (stereo not drawn)	28.1 µM (inactive)	13.4 µM (inactive)	33.4 µM (inactive)	40.5 µM (inactive)	19.5 µM	51.4 µM (inactive)	64.6 µM (inactive)	55.5 µM (inactive)	20.1 µM (inactive)		24.5 µM (inactive)	17.5 µM (inactive)	20.5 µM (inactive)			> 100 µM (inactive)		49.7 µM (inactive)	20.7 µM (inactive)	
Cc1ccc(NC(=O)C(Cc2c[nH]c3ccccc23)NC(=O)Oc2ccccc2)cc1C (stereo not drawn)		35.1 µM (inactive)	> 100 µM (inactive)	61.5 µM (inactive)	62.4 µM	> 100 µM (inactive)	59 µM (inactive)	23.8 µM (inactive)	74.8 µM (inactive)	73.1 µM (inactive)	83.8 µM (inactive)	34.8 µM (inactive)	> 100 µM (inactive)	64.1 µM (inactive)	47.9 µM (inactive)	> 100 µM (inactive)			> 100 µM (inactive)	
Fc1ccc2c(c1)SC1=Nc3sc4cc(F)ccc4[n+]3CN12	18.3 µM (inactive)		26.7 µM (inactive)	22.5 µM (inactive)	29.5 µM	19.5 µM (inactive)	14.3 µM (inactive)		25.8 µM (inactive)	21.3 µM (inactive)	18.2 µM (inactive)	14.3 µM (inactive)	32.1 µM (inactive)	17.3 µM (inactive)	18.4 µM (inactive)	22.4 µM (inactive)		10.5 µM (inactive)	12.1 µM (inactive)	
CCO[C@]12C[C@H](OC)[C@@]3(O)CC(C1[C@H]3O)C13C4C2[C@H](OC)C1[C@](COC)(CN4CC)[C@H](O)C[C@@H]3OC (stereo partly drawn)		> 100 µM (inactive)		> 100 µM (inactive)	> 100 µM	> 100 µM (inactive)	> 100 µM (inactive)		> 100 µM (inactive)	> 100 µM (inactive)				> 100 µM (inactive)	> 100 µM (inactive)	> 100 µM (inactive)	> 100 µM (inactive)	> 100 µM (inactive)		> 100 µM (inactive)
C=CC(C)C1(CCCOCc2ccccc2)C(=S)N2CCC3(CC24CCCC14)OCCO3 (stereo not drawn)		6.41 µM (inactive)			> 100 µM		4.84 µM (inactive)	12.9 µM (inactive)		36.6 µM (inactive)		6.76 µM (inactive)	53.2 µM (inactive)	91.6 µM (inactive)	54.3 µM (inactive)	> 100 µM (inactive)		56.1 µM (inactive)	7.31 µM (inactive)	4.97 µM (inactive)
Cc1cc2cc3c(C)cc(=O)oc3c(C)c2o1 [TRIOXSALEN]	> 100 µM (inactive)	> 100 µM (inactive)	> 100 µM (inactive)	> 100 µM (inactive)	> 100 µM	> 100 µM (inactive)	> 100 µM (inactive)	> 100 µM (inactive)	> 100 µM (inactive)	> 100 µM (inactive)	> 100 µM (inactive)	> 100 µM (inactive)	> 100 µM (inactive)	> 100 µM (inactive)	> 100 µM (inactive)		> 100 µM (inactive)	> 100 µM (inactive)	> 100 µM (inactive)	
